Measured values: PubChem BioAssay (NCI)
Values joined by “and” are separate entries in the source; they are usually repeats but may differ in a detail not shown here. Equal entries are not always repeated.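 Cells were grown in 96-well plates and exposed to each compound for 48 hours at five concentrations; endpoints were interpolated linearly between bracketing concentrations, or set to the highest concentration if not reached. Abbreviation: GI50, concentration required for 50% inhibition of growth. At the TGI there is no net growth.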

Legend:
Assay in all cases: DTP human tumour cell line panel, 48 h
MALME-3M melanoma = tested on: MALME-3M melanoma
NCI-H522 lung = tested on: NCI-H522 lung
HOP-92 NSCLC = tested on: HOP-92 NSCLC
MDA-MB-435 = tested on: MDA-MB-435
PC-3 prostate = tested on: PC-3 prostate
T-47D breast = tested on: T-47D breast
DU-145 prostate = tested on: DU-145 prostate
HS 578T breast = tested on: HS 578T breast
MCF7 breast = tested on: MCF7 breast
NCI/ADR-RES ovarian = tested on: NCI/ADR-RES ovarian

Structure (SMILES) | TGI (MALME-3M melanoma) | TGI (NCI-H522 lung) | TGI (HOP-92 NSCLC) | TGI (MDA-MB-435) | TGI (PC-3 prostate) | TGI (T-47D breast) | TGI (DU-145 prostate) | TGI (HS 578T breast) | TGI (MCF7 breast) | GI50 (MALME-3M melanoma) | GI50 (MDA-MB-435) | GI50 (PC-3 prostate) | GI50 (T-47D breast) | GI50 (DU-145 prostate) | GI50 (NCI/ADR-RES ovarian) | TGI (NCI/ADR-RES ovarian) | GI50 (NCI-H522 lung) | GI50 (HS 578T breast) | GI50 (MCF7 breast) | GI50 (HOP-92 NSCLC)
O=C1C(Cl)=C(Cl)C(=O)N1c1ccccc1Cl | > 88 µM | 22.7 µM | > 79.4 µM | – | – | – | – | – | – | – | – | – | – | – | – | – | – | – | – | –
Cn1nc(-c2ccccc2)c2c(/C=C/c3ccc(Cl)cc3)onc2c1=O | – | 45.5 µM | 57.1 µM | – | – | – | – | – | – | – | – | – | – | – | – | – | – | – | – | –
Cc1ccccc1C=NC12CC3CC(CC(C3)C1)C2 | > 100 µM | > 100 µM | > 100 µM | – | – | – | – | – | – | – | – | – | – | – | – | – | – | – | – | –
O=C(Nc1ccccc1)n1cc(-c2ccccn2)c(N2CCOCC2)n1 | 8.78 µM | 6.58 µM | > 100 µM | – | – | – | – | – | – | – | – | – | – | – | – | – | – | – | – | –
CCC(C)C(=O)O[C@H]1C(=O)O[C@@H]2C[C@H]3C(C)=CC(=O)[C@@H](O)[C@]3(C)[C@H]3[C@@H](O)[C@H](O)[C@@]4(C)OC[C@]32[C@@H]14 (stereo partly specified) | < 0.024 µM | 0.0773 µM | – | < 0.01 µM | 0.0143 µM | < 0.0105 µM | < 0.0164 µM | < 0.01 µM | < 0.01 µM | – | – | – | – | – | – | – | – | – | – | –
COC(=O)C(=O)C(C#N)c1cccc(Cl)c1 (stereo unspecified) | > 100 µM | > 100 µM | – | – | – | – | – | – | – | – | – | – | – | – | – | – | – | – | – | –
O=C(/C=C/c1ccco1)Nc1ncc(Cc2cccc(C(F)(F)F)c2)s1 | 10.6 µM | 0.328 µM | – | 0.0533 µM | > 44.3 µM | > 92.2 µM | > 24.3 µM | 3.89 µM | > 56.2 µM | 0.125 µM | 0.0207 µM | 0.055 µM | 0.12 µM | 0.103 µM | 0.0422 µM | 1.66 µM | 0.0321 µM | 0.0466 µM | 0.0367 µM | –
Cc1cc2c(C(=O)NCC#N)cccc2n1-c1nc2c(c(NCc3ccccc3)n1)CCCC2 | 0.618 µM | 0.842 µM | – | 0.809 µM | – | 1.53 µM | 2.48 µM | 47.5 µM | 8.17 µM | 0.201 µM | 0.249 µM | – | 0.269 µM | 0.384 µM | 0.328 µM | 3.03 µM | 0.242 µM | 0.386 µM | 0.25 µM | –
CCC1=C[C@@H]2CN(C1)Cc1c([nH]c3ccccc13)[C@@](C(=O)OC)(c1cc3c(cc1OC)N(C)[C@H]1[C@@](O)(C(=O)OC)[C@H](OC(C)=O)[C@]4(CC)C=CCN5CC[C@]31[C@@H]54)C2 | 4.92 µM | > 31.8 µM | 0.554 µM | – | 21.8 µM | – | < 0.01 µM | 9.59 µM | 11.5 µM | < 0.01 µM | – | < 0.01 µM | – | < 0.01 µM | 1.58 µM | 30.5 µM | < 0.0227 µM | < 0.01 µM | < 0.01 µM | < 0.0471 µM
N#CC(C(=O)CCC(=O)Nc1ccc(Cl)cc1)c1ccc(Cl)cc1 (stereo unspecified) | > 100 µM | > 100 µM | > 100 µM | – | – | – | – | – | – | – | – | – | – | – | – | – | – | – | – | –
Cc1ccc(C(=O)C(c2nc3n(c2O)C(=N)N=N3)c2nc3n(c2O)C(=N)N=N3)cc1 (stereo unspecified) | > 100 µM | > 100 µM | > 100 µM | – | – | – | – | – | – | – | – | – | – | – | – | – | – | – | – | –
CCc1cccc(C)c1N1C(=O)C(=O)C(c2nc3ccccc3o2)/C(=N/NC(=S)NN)C1=O (stereo unspecified) | > 100 µM | > 100 µM | > 100 µM | – | – | – | – | – | – | – | – | – | – | – | – | – | – | – | – | –
CC(=O)NC(CS)C(=O)O (stereo unspecified) | > 100 µM and 54500 µM | > 100 µM and 46300 µM | – | > 100 µM and 61900 µM | > 100 µM | > 100 µM | > 100 µM | > 100 µM and 87200 µM | > 100 µM and 71300 µM | > 100 µM | > 100 µM | > 100 µM | > 100 µM | > 100 µM | > 100 µM | > 100 µM and 81500 µM | > 100 µM | > 100 µM | > 100 µM | –
CN(C)c1ccc(/C=C(\C#N)c2ccccc2)cc1 | > 100 µM | – | – | – | > 100 µM | > 100 µM | 22.3 µM and > 100 µM | – | > 100 µM | 2.58 µM and 18 µM | 0.0424 µM and 0.192 µM and 0.13 µM | 0.272 µM and 1.92 µM and 0.956 µM | 0.446 µM and 0.534 µM and 0.473 µM | 0.617 µM and 1.51 µM and 1.48 µM | 0.348 µM and 0.395 µM and 0.324 µM | 49.9 µM and > 100 µM and 74.1 µM | 0.369 µM and 0.43 µM and 0.681 µM | – | 0.261 µM and 0.276 µM and 0.281 µM | –
O=C[C@]12CC=C3OC4OC5(CCCCC5)OC4[C@H]3[C@H]1C(=O)C=CC2=O (stereo partly specified) | 34.4 µM | 22.1 µM | – | – | – | – | – | – | – | – | – | – | – | – | – | – | – | – | – | –
Cn1cnc([N+](=O)[O-])c1Sc1nc2ccccc2o1 | 16.6 µM | 4.42 µM | 12.4 µM | – | – | – | – | – | – | – | – | – | – | – | – | – | – | – | – | –
N#CC(C#N)=Cc1ccc(C(O)P(=O)(O)O)cc1 (stereo unspecified) | > 100 µM | > 100 µM | > 100 µM | – | – | – | – | – | – | – | – | – | – | – | – | – | – | – | – | –
Cc1cc(O[C@@H]2O[C@@H](C)[C@H](O)[C@@H](O)[C@H]2O)c2c3c(c(O[C@@H]4O[C@@H](C)[C@H](O)[C@@H](O)[C@H]4O)cc2c1)C(=O)c1c(O)cccc1C3=O | > 30 µM | – | > 30 µM | > 30 µM | > 30 µM | > 30 µM | > 30 µM | > 30 µM | > 30 µM | > 30 µM | > 30 µM | > 30 µM | > 30 µM | > 30 µM | > 30 µM | > 30 µM | – | > 30 µM | > 30 µM | > 30 µM
C=C1C(=O)O[C@@H]2C[C@@H]1CC[C@]1(C)O[C@H]1CC/C(C)=C/CC[C@@]2(C)O | – | > 100 µM | 82.7 µM | 41.1 µM | > 100 µM | 58.7 µM | – | 68.5 µM | 36 µM | – | 18.3 µM | 96.3 µM | 28.8 µM | – | 20.9 µM | 56.3 µM | 27.2 µM | 21.7 µM | 15.2 µM | 29.1 µM
CCCCOC(=O)/C=C\C(=O)NC(N)=O | 34.5 µM | – | 24.4 µM | 85 µM | 69.7 µM | 95.5 µM | > 100 µM | > 100 µM | 76.7 µM | 14.7 µM | 24.7 µM | 25 µM | 14.5 µM | 10.1 µM | 27 µM | 74.3 µM | – | 23.5 µM | 13 µM | 10.9 µM
CN1C(c2ccccc2)CC(C)(O)CC1c1ccccc1 (stereo unspecified) | > 100 µM | > 100 µM | > 100 µM | – | – | – | – | – | – | – | – | – | – | – | – | – | – | – | – | –
O=C(CC(=O)N1N=C(n2ccc3ccccc32)CC1c1ccccc1)Nc1ccc(Cl)cc1 (stereo unspecified) | > 100 µM | > 100 µM | > 100 µM | – | – | – | – | – | – | – | – | – | – | – | – | – | – | – | – | –
CC12CC/C(=N/NC(N)=O)C3C1CCCC32 | > 100 µM | > 100 µM | > 100 µM | – | – | – | – | – | – | – | – | – | – | – | – | – | – | – | – | –
